Data reported in EP0366632A1, “Alternative energy substrates” (priority 1988, dated 1990).
Several values for one entry are separate records, joined by “and”; a condition that tells them apart may be missing. Equal entries are not always repeated.

Columns and labels:
Cand. parapsil. (yeast) = assay: Microorganism count in 2% ester emulsions (Example 12, Table 1); format: cell-based; conditions: 2% emulsion, phosphate buffer pH=7.0, +37°C, Additive/ml 5012
Procedure: (§1) In addition to ester, the emulsions also comprised egg-yolk phospholipid 1,2% and sterile water. The emulsions were prepared aseptically, by emulsifying sterile-filtered ester with a sterilized dispersion of egg-yolk phospholipids. Aliquots of these emulsions were diluted with a phosphate buffer (0.01 M, pH=7.0) in the proportions of 1 and 10 respectively, so as to obtain 2-percent emulsions. Various microorganisms according to Table 1 below were added to these emulsions. The samples were then incubated at +37°C for 20 hours. Counting of the number of microorganisms was started after 2 and 20 hours, in the manner described in microbiological literature. Checks were run on a pure phosphate buffer with additives of the same microorganisms as earlier, in parallel with the aforesaid experiments, while checks were run in Tryptone Soya broth (TSB) with additions of the same microorganisms, in order to ascertain whether or not the microorganisms could survive, i.e. could grow under the ideal conditions. […]

E. coli ATCC 8739 = assay: as above; format: cell-based; conditions: 2% emulsion, phosphate buffer pH=7.0, +37°C, Additive/ml 6310
Procedure: as §1

Enter. cloacae = assay: as above; format: cell-based; conditions: 2% emulsion, phosphate buffer pH=7.0, +37°C, Additive/ml 1585
Procedure: as §1

Proteus vulg. ATCC 13315 = assay: as above; format: cell-based; conditions: 2% emulsion, phosphate buffer pH=7.0, +37°C, Additive/ml 1000
Procedure: as §1

[1] = system: Ps. aeruginosa ATCC 19429; assay: as above; format: cell-based; conditions: 2% emulsion, phosphate buffer pH=7.0, +37°C, Additive/ml 7943
Procedure: as §1

Serr. maresc. ATCC 14756 = assay: as above; format: cell-based; conditions: 2% emulsion, phosphate buffer pH=7.0, +37°C, Additive/ml 6310
Procedure: as §1

[2] = Cold storage of fat emulsion (Intralipid) with ester admixture: visual inspection, pH, mean particle size; format: physicochemical; conditions: for Mean particle size, X / pH / Mean particle size (single readings, Coulter nanosizer): Example 32: Intralipid 20%; for pH: after 5 day storage; for Mean particle size (single readings, Coulter nanosizer): listed as 5-methyl-3-oxo-pentanoic acid ethyl ester; for emulsion quality, daily visual inspection: Example 32: mother concentrate in Intralipid 20%; for emulsion quality, daily visual inspection / emulsion stability, daily visual inspection: +5°C, 5 days
Procedure: A so-called mother concentrate was prepared by dissolving 6 g of egg-yolk phospholipids in 40 g of 4-methyl-3-oxo-pentanoic acid ethyl ester at +60°C, while stirring. 34 g of 99% ethyl alcohol were then added to the solution, whereafter the solution was cooled to room temperature and dispensed into 20 ml glass flasks. Nitrogen gas was then bubbled through the liquid and the flasks then stoppered and capsuled. The bottles were then autoclaved at +120°C and at 118 kPa for 20 minutes. A 10% fat emulsion for parenteral nutrient administration (Intralipid^R retailed by KabiVitrum AB, Stockholm) was added to the preparation under strict asceptic conditions, to a 4-methyl-3-oxo-pentanoic acid ethyl ester concentration of 0.2, 1 and 3% respectively. The emulsion was shaken for 5 minutes in a shaking machine and then placed in a cold environment (+5°C). The emulsion was thereafter observed over a 5 day period, wherewith a daily inspection was carried out to assess the formation of oil droplets, creaming or oil separation. The assessment was made in comparison with a known emulsion for parenteral use (Intralipid^R 10%). […] Subsequent to 5 days storage, an analysis was made of the pH and mean particle size in a Coulter nanosizer. The following values were obtained:
(§2) A so-called mother concentrate produced by dissolving 6 g egg-yolk phospholipids in 40 g of 4-methyl-3-oxo-pentanoic acid-ethyl ester at +60°C, while stirring the system. 34 g of 99% ethyl alcohol were then added to the solution, whereafter the solution was cooled to room temperature and dispensed into 20 ml glass flasks. Nitrogen gas was perculated through the contents of the flasks, and the flasks subsequently stoppered and fitted with capsules. The flasks were then autoclaved at 120°C and 118 kPa over a period of 20 minutes. This preparation was added to a 20% fat emulsion (Intralipid^R) under strict aseptic conditions, such that the concentation of 4-methyl-3-oxo-pentanoic acid ethyl ester was 0.2 and 1 and 3% respectively. The emulsion was shaken for 5 minutes in a shaker and then placed in a cold environment (5°C). The emulsion was inspected over a period of 5 calender days, wherewith a visual inspection was carried out daily in order to ascertain the occurrence of any oil droplets that may form, creaming or oil separation. The assay was effected by comparison with a known emulsion for parenteral use (Intralipid^R 20%). […] The pH of the emulsion was measured after a 5 day storage period. The mean particle size was measured in a Coulter^R nanosizer. The following values were obtained:
as §2, with “prepara tion” for “preparation”, “10%” for “20%”, “10%).” for “20%).”, “obtained: […]” for “obtained:”

[3] = Total parenteral nutrition (TPN) with ester as energy substitute in rats; conditions: 9 days
Procedure: Sprague-Dawley male rats weighing 180-190 g were sur­gically fitted with a central vein catheter protected by a saddle (Roos et al, 1981). Total parenteral nutrition (TPN) was administered in accordance with the following standard formula: Fat: 8 g/kg body weight and 24 hours Nitrogen: 1,2 g/kg body weight and 24 hours Total energy supplied: 1257 kJ/kg body weight and 24 hours Liquid: 300 ml/kg body weight and 24 hours The glucose to fat ratio was 70-30 energy percent. The energy percentage obtained from the energy substitutes during the test period corresponded to about 5% NPC. The TPN-mixture was obtained by mixing Vamin^R 14 (a solution of essential and non-essential amino acids for paren­teral nutrient administration, retailed by KabiVitrum AB) with no electrolytes, glucose solution 50% and Intralipid^R 20% in suitable proportions and adding adequate quantities of electrolytes, trace minerals and vitamins. Subsequent to infusing the rats continuously for one week (20 hours/day), the animals were divided randomly into three groups, with 6 animals in each group. The animals of one group were administered with the same TPN-formula as that previously mentioned (the reference group). […] The compounds were given in a dosage of 2 g/kg body weight and 24 hours in a yield corres­ponding to equivalent glucose energy quantities. In other respects, the TPN-program or formula was the same as that for the reference group. The experiment was then continued for a further 9 days, during which the weights of the animals were recorded daily and urine collected and frozen. At the end of the test period, the rats were killed by heart puncture while under a pentobarbital anesthetic and an autopsy was performed on the rat carcasses with microscopic examination. The body organs were sent to a laboratory for pathological assay.

CCOC(=O)CC(=O)CC(C)C [5-methyl-3-oxo-hexanoic acid ethyl ester]
number of microorganisms (Cand. parapsil. (yeast); 2 hrs): 3162 | number of microorganisms (Cand. parapsil. (yeast); 20 hrs): 0 | number of microorganisms (E. coli ATCC 8739; 2 hrs): 0 | number of microorganisms (E. coli ATCC 8739; 20 hrs): 0 | number of microorganisms (Enter. cloacae; 2 hrs): 0 | number of microorganisms (Enter. cloacae; 20 hrs): 0 | number of microorganisms (Proteus vulg. ATCC 13315; 2 hrs): 0 | number of microorganisms (Proteus vulg. ATCC 13315; 20 hrs): 0 | number of microorganisms ([1]; 2 hrs): 0 | number of microorganisms ([1]; 20 hrs): 0 | number of microorganisms (Serr. maresc. ATCC 14756; 2 hrs): 0 | number of microorganisms (Serr. maresc. ATCC 14756; 20 hrs): 0 | Mean particle size, X ([2]; 0.2% admix): 322 | pH ([2]; 0.2% admix): 7.4 | Mean particle size (single readings, Coulter nanosizer) ([2]; 0.2% admix): 317 and 321 and 324 | Mean particle size, X ([2]; 1% admix): 319 | pH ([2]; 1% admix): 7.0 | Mean particle size (single readings, Coulter nanosizer) ([2]; 1% admix): 317 and 324 and 321 | Mean particle size, X ([2]; 3% admix): 324 | pH ([2]; 3% admix): 6.7 | Mean particle size (single readings, Coulter nanosizer) ([2]; 3% admix): 324 and 328 and 321 | emulsion quality, daily visual inspection ([2]; 0.2% addition): No change in quality | emulsion quality, daily visual inspection ([2]; 1% addition): No change in quality | emulsion quality, daily visual inspection ([2]; 3-percent mixture): fully acceptable over the first 4 days | emulsion stability, daily visual inspection ([2]; Example 33: pure ester in 10% fat emulsion (Intralipid), 0.2%): stable over the whole of the test period | emulsion stability, daily visual inspection ([2]; Example 33: pure ester in 10% fat emulsion, 1%): stable over the whole of the test period | emulsion stability, daily visual inspection ([2]; Example 33: pure ester in 10% fat emulsion, 3%): stable over the whole of the test period | emulsion stability, daily visual inspection ([2]; Example 33: pure ester in 10% fat emulsion, 5%): stable over the first 2 days | emulsion stability, daily visual inspection ([2]; Example 33: pure ester in 20 percent emulsion, 0.2%): remained stable over the whole of the test period | emulsion stability, daily visual inspection ([2]; Example 33: pure ester in 20 percent emulsion, 1%): remained stable over the whole of the test period | emulsion stability, daily visual inspection ([2]; Example 33: pure ester in 20 percent emulsion, 3%): remained stable for 1 day | toxicity at the dosages tested ([3]; 2 g/kg body weight and 24 hours): non-toxic | average growth per day during the whole of the test period ([3]; ester 2 g/kg body weight and 24 hours in place of equivalent glucose energy): 2.8 ± 0.2 g
